Source: patent US5962415A, “Compositions comprising a peptide inhibitor of nuclear protein translocation and an immunosuppressant and methods of use thereof” (Bristol-Myers Squibb Co., priority 1998, dated 1999)
Values belong to the compound of their own block, whether it stands above or below them. Where a SMILES comes first, the peptide text is derived from it. Where no end group is shown, it is not given here. [ ]: non-standard residue; d: D form.

How the values were obtained:
[1] = test system: THP-1 human monocytic cells; experiment: LPS-stimulated cytokine (TNF-α, IL-8) production in THP-1 cells; type: cell-based; details: 5 μM, 5 hr LPS stimulation, FIG. 4A
Procedure: Amounts of TNF-α, IL-6, IL-8 and IL-10 were determined using the ELISA kits obtained from Genzyme following the manufacturer's instructions.
THP-1 control cells were harvested, washed and set up in RPMI 1640, 10% fetal calf serum, at a concentration of 2.56×10^6 cells/ml. Phosphate buffered saline ("PBS") or one of the two respective polypeptides SV40MEM or SV40 (a peptide having only the SV40 large T antigen NLS sequence) were added to the cells at a concentration of 10 μM or 20 μM. The cells were then plated into a 96-well plate with 0.1 ml/well. The plate was then incubated for 2 hr at 37° C. in a 5% CO2 atmosphere. Following the initial incubation, media or a titration of LPS was added to each of the wells in a volume of 0.1 ml. Thus, the final concentrations of polypeptides were 5 μM or 10 μM. Following 5 hr of LPS stimulation, supernatants were taken and TNF-α and IL-8 levels were determined by ELISA. In addition, cells treated with PBS or polypeptides, but not incubated with LPS, were removed at the time of supernatant removal to determine the viability of the cells following 7 hr of contact with the polypeptides.
This experiment was conducted to compare the inhibitory effect of the SV40MEM polypeptide and other inhibitory polypeptides on LPS induction of cytokine production. THP-1 control cells (ATCC 9/95 stock) were harvested, washed and set up in RPMI 1640, 10% fetal calf serum as described in Example 2. The cells were incubated for 2 hr with PBS or (1) the FGF signal sequence, (2) a polypeptide having the FGF signal sequence and the NLS of NF-κB p50 on the carboxy terminus of the signal sequence, (3) the SV40MEM polypeptide comprised of L-amino acids, or (4) the SV40MEM polypeptide comprised of D-amino acids at a final concentration of 5 μM. The cells were then plated into a 96-well plate with 0.1 ml/well. The plate was then incubated for 2 hr at 37° C. in a 5% CO2 atmosphere. Following the initial incubation, media or a titration of LPS was added to each of the wells in a volume of 0.01 ml/well. Following 5 hr of LPS stimulation, supernatants were taken and TNF-α levels were determined by ELISA.

HIVLAI in Jurkat cells = experiment: Nuclear translocation of HIV genome in Jurkat cells infected with HIVLAI (gag and 2-LTR circle PCR); type: cell-based, HIV-1; details: SV40MEM 0.1 and 1.0 μM, NF-κBMEM 10 μM, 24 hr
Procedure: (§1) HIV-1 M1 p24 levels were assayed using the procedures described in Smithgall et al (1995) AIDS Res. and Human Retrovirus 11:885. Proviral DNA content (gag) was measured using polymerase chain reaction analysis as described in Smithgall et al. (1995), supra.
2-LTR circles, a strictly nuclear form of HIV-1 DNA the expression of which indicates nuclear localization of the viral genome, was measured by as described in Bukrinsky et al (1991) Science 254:423.
Jurkat cells were incubated with the SV40MEM polypeptide for 3 hr with HIVLAI for 1-2 hr. The virus was washed out and the cultures supplemented with the appropriate inhibitor (SV40MEM, 0.1,μM and 1.0 μM; NF-κBMEM, 10 μM). After 24 hr, the cells were collected, lysed and evaluated for HIV-1 DNA by polymerase chain reaction analysis of gag sequences (see FIG. 8A) and 2-LTR circles (see FIG. 8B).

Murine 70Z/3 B-cells = experiment: Proliferation of 70Z/3 murine B-cell leukemia cells; type: cell-based; details: 0.2 μM (lowest concentration), 48 hr, FIG. 9
Procedure: Murine 70Z/3 B-cells were treated with 0, 0.2, 0.5, 1, or 2 μM […] prepared from D-amino acids. On day 0, the cell concentrations of the control and treated cells were the same. After 48 hr of exposure to the peptide, the treated cells were again counted and compared to control cells.

Human RAJI B-cells = experiment: Proliferation of RAJI human B-cell leukemia cells; type: cell-based; details: 5 μM (lowest concentration), 48 hr, FIG. 10
Procedure: Human RAJI B-cells were treated with 0, 5, 10 or 25 μM SV40MEM prepared from D-amino acids. On day 0, the cell concentrations of the control and treated cells were the same. After 48 hr of exposure to the peptide, the treated cells were again counted and compared to control cells.

[2] = test system: 70Z/3 murine leukemia pre-B cells; experiment: LPS-stimulated surface antigen expression (κ Ig light chain, IL-2 receptor, CD45) in 70Z/3 cells; type: cell-based; details: for potency and efficacy of L- versus D-amino acid form, LPS-stimulated κ Ig expression: FIG. 3
Procedure: Expression of κ Ig, CD45, CD40, and the interleukin-2 receptor was assayed using standard enzyme-linked immunosorbent assays ("ELISAs") (see, Coligan et al. (eds.) (1991) Current Protocols in Immunology, Wiley & Sons, p. 2.10 or by FACS staining to measure cell-surface markers as described in Raff (1970) Immunology 19:637). Antibodies form cell surface markers were obtained from Pharmingen Co.
The effect of the SV40MEM polypeptide was compared with two additional polypeptides, […] (SEQ ID NO:2) (the "HIV-1MEM" polypeptide), which is composed of the membrane translocation domain of FGF flanked by the NLS from the HIV-1 matrix protein and […] (SEQ ID NO:3) (the "C-MYCMEM" polypeptide), which contains the NLS from the human c-myc oncoprotein (Chelsky et al. (1989), supra, and Dang et al. (1988), supra) using murine 70Z/3 pre-B cells.
Murine 70Z/3 cells (ATCC TlD-158) are a model cell line for analyzing the effects of compounds on B-cell differentiation. In response to S. typhosa LPS (Difco) or γ-interferon, these cells differentiate from surface κ immunoglobulin negative to κ Ig positive.
[…] of: (1) a peptide containing only the FGF signal sequence AAVALLPAVLLALLAP (SEQ ID NO:4) (the "MEM" peptide); (2) a polypeptide having the FGF signal sequence and the NLS of NF-κB p50 on the carboxy terminus of the signal sequence, namely, the NF-κBMEM polypeptide; (3) the SV40MEM polypeptide comprised of L-amino acids; or (4) the SV40MEM polypeptide comprised of D-amino acids. The cells were then incubated with LPS as described in Example 2 and assayed for expression of κ light chain expression.

CD14 = experiment: LPS binding to CD14 (plate assay with soluble CD14 Ig); details: E. coli AO16 LPS, 2 hours at 4° C., FIG. 14
Procedure: 96-well plates were coated with goat-anti human Ig, soluble CD-1 4 Ig was added, and the plates were incubated overnight at 4° C. The BMS polypeptide, the C-MYCMEM polypeptide, an SV40 NLS polypeptide containing a single SV40 large T-antigen NLS, a c-myc NLS without a translocation sequence (AKRVKL (SEQ ID NO:6)), a control non-NLS polypeptide, 377G, or PBS, were added to the plates and the plates were incubated for 5 min. E. coli AO16 LPS was then added to the plates and the plates were incubated for 2 hours at 4° C. The plates were washed and LPS was detected using 0.5 μg/ml mouse anti-E. coli LPS, followed by goat anti-mouse horseradish peroxidase.

HIV-1 primary isolate M1 = experiment: Infection of anti-CD3 activated PBMCs with HIV-1 primary isolate M1; type: cell-based; details: seven days, compared to untreated but activated cultures
Procedure: as §1
PBMCs were obtained washed, cultured, and infected with HIV-1 as described in Dubrovsky et al. (1995) Mol. Med. 1:217-230). PBMCs from a seronegative donor were collected and depleted of CD8^+ T cells by negative selection. The cells were activated with an anti-CD3 monoclonal antibody prepared according to the method described in Wee et al. (1993) J. Exp. Med. 177:219 and incubated for 3 hr with the HIV-1MEM polypeptide. The cells were then incubated with M1 virus isolated from PBMC collected from HIV-infected donors in the presence of inhibitors for 2 hr. The virus was washed out, and the cultures supplemented with the appropriate inhibitor and allowed to incubate for seven days. Virus production was determined by measuring the p24 levels in the culture supernatant (FIG. 6B) and contrasted with the effect of the polypeptide on cell proliferation (FIG. 6A), which virus load was determined by polymerase chain reaction analysis of proviral DNA content (gag) (FIG. 6C). The MEM peptide represents the FGF membrane translocating portion of the HIV-1MEM polypeptide.

[3] = test system: HIV-M1 virus in Jurkat human leukemia T-cells; experiment: Infection of Jurkat T-cells with HIV-M1 virus (PCR of HIV-1 DNA); type: cell-based; details: 2 μM, 4 hr preincubation, day 3, FIG. 7
Procedure: as §1
(§2) H9 and Jurkat cells were incubated with the HIV-1MEM polypeptide (2,μM) or the control MEM peptide for 4 hr prior to addition of HIV-M1 virus. Cells were harvested on day 3 following injection and the level of HIV-1 DNA evaluated by polymerase chain reaction.

[4] = test system: HIV-M1 virus in H9 human lymphoma T-cells; experiment: Infection of H9 T-cells with HIV-M1 virus (PCR of HIV-1 DNA); type: cell-based; details: 2 μM, 4 hr preincubation, day 3, FIG. 7
Procedure: as §1, §2

Compound: CSCC[C@H](NC(=O)[C@H](CC(C)C)NC(=O)[C@H](CCCCN)NC(=O)[C@H](CCC(N)=O)NC(=O)[C@H](CCCNC(=N)N)NC(=O)[C@H](CCCCN)NC(=O)[C@H](CCCNC(=N)N)NC(=O)[C@H](CCC(N)=O)NC(=O)[C@@H](NC(=O)[C@@H]1CCCN1C(=O)[C@H](C)NC(=O)[C@H](CC(C)C)NC(=O)[C@H](CC(C)C)NC(=O)[C@H](C)NC(=O)[C@H](CC(C)C)NC(=O)[C@H](CC(C)C)NC(=O)[C@@H](NC(=O)[C@H](C)NC(=O)[C@@H]1CCCN1C(=O)[C@H](CC(C)C)NC(=O)[C@H](CC(C)C)NC(=O)[C@H](C)NC(=O)[C@@H](NC(=O)[C@H](C)NC(=O)[C@H](C)N)C(C)C)C(C)C)C(C)C)C(=O)N1CCC[C@H]1C(N)=O [NF-κBMEM]
LPS-induced TNF-α expression [1]: did not significantly inhibit | viral internalization / virus entry (gag sequences) (HIVLAI in Jurkat cells; FIG. 8A): no effect | translocation of the viral genome into the nucleus (2-LTR circles) (HIVLAI in Jurkat cells; FIG. 8B): no effect

Compound: CC(C)C[C@@H](NC(=O)[C@@H](C)NC(=O)[C@@H](CC(C)C)NC(=O)[C@@H](CC(C)C)NC(=O)[C@H](NC(=O)[C@@H](C)NC(=O)[C@H]1CCCN1C(=O)[C@@H](CC(C)C)NC(=O)[C@@H](CC(C)C)NC(=O)[C@@H](C)NC(=O)[C@H](NC(=O)[C@@H](C)NC(=O)[C@@H](C)NC(=O)[C@H](NC(=O)[C@@H](CCCCN)NC(=O)[C@@H](CCCNC(=N)N)NC(=O)[C@@H](CCCCN)NC(=O)[C@@H](CCCCN)NC(=O)[C@@H](CCCCN)NC(=O)[C@H]1CCCN1)C(C)C)C(C)C)C(C)C)C(=O)N[C@H](CC(C)C)C(=O)N[C@H](C)C(=O)N1CCC[C@@H]1C(=O)N[C@H](CCCCN)C(=O)N[C@H](CCCCN)C(=O)N[C@H](CCCCN)C(=O)N[C@H](CCCNC(=N)N)C(=O)N[C@H](CCCCN)C(=O)N[C@@H](C(=O)N[C@H](CS)C(N)=O)C(C)C [SV40MEM (D-amino acid form)] (H-[dP][dK][dK][dK][dR][dK][dV][dA][dA][dV][dA][dL][dL][dP][dA][dV][dL][dL][dA][dL][dL][dA][dP][dK][dK][dK][dR][dK][dV][dC]-NH2; N-terminus and C-terminus assumed)
LPS-induced TNF-α expression [1]: significantly inhibited | proliferation (cell count versus control) (Murine 70Z/3 B-cells): inhibited | proliferation (cell count versus control) (Human RAJI B-cells): inhibited | potency and efficacy of L- versus D-amino acid form, LPS-stimulated κ Ig expression [2]: equally potent and efficacious | efficacy at inhibiting κ Ig light chain production (comparison of three polypeptides) ([2]; dose-response data, FIG. 1B): approximately equally efficacious

binding of LPS to CD14 (CD14): did not block binding
Compound: AKRVKL [c-myc NLS, reference compound]

Compound: KKKYKAAVALLPAVLLALLAKKKYKC [HIV-1MEM, membrane translocation domain of FGF flanked by the NLS from the HIV-1 matrix protein]
virus production (p24 levels in culture supernatant) (HIV-1 primary isolate M1; FIG. 6B): significantly reduced | virus load (PCR of proviral DNA content, gag) (HIV-1 primary isolate M1; FIG. 6C): significantly reduced | infection (level of HIV-1 DNA by PCR) [3]: inhibited infection | infection (level of HIV-1 DNA by PCR) [4]: inhibited infection | efficacy at inhibiting κ Ig light chain production (comparison of three polypeptides) ([2]; dose-response data, FIG. 1B): approximately equally efficacious | potency at inhibiting κ Ig light chain production compared with SV40MEM ([2]; dose-response data, FIG. 1B): not as potent

Compound: PKKKRKVAAVALLPAVLLALLAPKKKRKVC-NH2 (C-terminus assumed) [SV40MEM (L-amino acid form)]
LPS-induced TNF-α expression [1]: significantly inhibited | potency and efficacy of L- versus D-amino acid form, LPS-stimulated κ Ig expression [2]: equally potent and efficacious
